# Patent US20210198256A1, “COMPOUNDS FOR THE DEGRADATION OF BRD9 OR MTH1” (C4 Therapeutics, Inc., priority 2018, published 2021)
# Tested on: SMARTCAR-MTH1-wt-HiBiT (Jurkat.7 cells)
# Assay: HiBit Lytic Assay (HiBit DC50, MTH1 degraders of Table 2)
# Assay type: cell-based, human
# Conditions: Jurkat.7 SMARTCAR-MTH1-wt-HiBiT cells, compound treatment time 4 hr, 11-point half log dose response
# Protocol: Example 3. HiBit Lytic Assay
# • Compound is made at 10 mM, half log dilution, 11 points. • MDR plates can also be ordered from Frontier with same format. • 1. Barcode a 384LDV plate (384-well Low Dead Volume Microplate, Labcyte LP-0200) (Echo compatible) on the left side. • 2. Transfer 13.6 μL of 10 mM compound into column 1 of LDV plate (Labcyte). • 3. Fill column 2-11 and column 23 of MDR plate with 9.30 μL of DMSO. • 4. Serial dilute 3.16 fold from column 1 to 2 by transferring 4.30 μL from column 1 to column 2, and so on to column 11. *Change tip in every dilution to prevent compound carryover effect! • 5. Seal the plate with Plate Sealer, then store the MDR plate at room temperature for short term storage and in −20° C. for long term storage.
# • Cells are treated with 30 nL of each compound at 10 mM, half log dilution, 11 points with final concentration of 1000 nM or 833 nM, half log dilution, 11 points, in duplicates. Final DMSO concentration is 0.1%. • 1. Barcode the plates made on the left side and label the plates with silver marker. • 2. Dispense with the following scheme: • a. 30 nL of compound into corresponding wells in cell plates via Echo550 with “MDR32_HiBiT16_30 nL”. Top concentration will be 1000 nM. • 3. Seal the plate with Plate Sealer.
# • Cells are dispensed at density specified in Cell Line Table in 384-well microplate. • 1. Culture cells to between 50-80% of confluence in sterile culture flasks of appropriate size. • 2. For Adherent Cell Lines: • a. Aspirate off growth media in culture flask, and wash off the Phenol Red media with 5 mL of 1×PBS. • b. Add 5 mL of Trypsin to the cells, incubate at 37° C. for 5 minutes. • c. Add 5 mL of growth media to the trypsinzed cells, and resuspend. • 3. Remove 10 μL of cells, and resuspend the cells with 10 μL of Trypan Blue. Insert the solution to counting chamber slide, and count the cells via cell counter. • 4. Adjust the cell concentration to specified plating density, and strain the cells with cell strainer. • 5. Dispense the cells via E1-ClipTip™ Electronic Multichannel Pipettes or Multidrop™ Combi Reagent Dispenser with Standard tube dispensing cassette: • a. Prime the cassette with 10-20 mL of ddH2O. • b. Prime the cassette with 10-20 mL of cells. • c. Dispense the cells at low speed for 30 μL/well in Corning® 384 Well Low Flange Black Flat Bottom Polystyrene TC-Treated Microplate. • d. Wash the cassette with 10-20 mL of ddH2O, follow by 10-20 mL of 70% EtOH, then again with 10-20 mL of ddH2O. • 6. Incubate the plates at 37° C.×compound treatment time.
# • 1. If not already, bring Nano-Glo® HiBiT Lytic Buffer to room temperature. • 2. Determine the amount of reagent needed. A volume of reagent equal to the volume of media in the well should be added (i.e. 30 μL of cells will need 30 μL of HiBiT Lytic reagent). • 3. Into a given volume of buffer, dilute the substrate 50-fold and the LgBiT protein 100-fold. For example, to make 10 ml of reagent, add the following: • 10 ml Nano-Glo® HiBiT Lytic Buffer • 200 μl Nano-Glo® HiBiT Lytic Substrate • 100 μl LgBiT Protein • The reagent should be reconstituted immediately before use. However, once reconstituted, it should take about 4 hours for the activity to decrease 10%. • 4. Cool down the cell plate to room temperature for 10-15 minutes without lid. • 5. Dispense the HiBiT Lytic Reagent via E1-ClipTip™ Electronic Multichannel Pipettes or Multidrop™ Combi Reagent Dispenser with Standard tube dispensing cassette: • a. Prime the cassette with 10-20 mL of ddH2O. • b. Prime the cassette with 10-20 mL of CTG 2.0. • c. Dispense the HiBiT Lytic Reagent at medium speed for 30 μL/well in cell plate to column 1-23 (column 24 will be used as plate background). • d. Wash the cassette with 10-20 mL of ddH2O, follow by 10-20 mL of 70% EtOH, then again with 10-20 mL of ddH2O. • 6. Incubate the cell plate at room temperature for 10 minutes without lid. • 7. […]
row,DC50 [nM],SMILES
1,< 100,"CNC(=O)c1cnc2ccc(N3CCC(C(=O)NCCCCNC(=O)COc4cccc5c4C(=O)N(C4CCC(=O)NC4=O)C5=O)CC3)cc2c1Nc1ccccc1 (stereo not shown) [Compound 347, 4-anilino-6-[4-[4-[[2-[2-(2,6-dioxo-3-piperidyl)-1,3-dioxo-isoindolin-4-yl]oxyacetyl]amino]butylcarbamoyl]-1-piperidyl]-N-methyl-quinoline-3-carboxamide]"
2,< 100,"CNC(=O)c1cnc2ccc(-c3ccc(C(=O)NCCCCNC(=O)COc4cccc5c4C(=O)N(C4CCC(=O)NC4=O)C5=O)c(F)c3)cc2c1Nc1ccccc1 (stereo not shown) [Compound 351, 4-anilino-6-[4-[4-[[2-[2-(2,6-dioxo-3-piperidyl)-1,3-dioxo-isoindolin-4-yl]oxyacetyl]amino]butylcarbamoyl]-3-fluoro-phenyl]-N-methyl-quinoline-3-carboxamide]"
3,< 100,"CNC(=O)c1cnc2ccc(-c3ccc(C(=O)NCCCCNC(=O)CNc4cccc5c4C(=O)N(C4CCC(=O)NC4=O)C5=O)c(C)c3)cc2c1Nc1ccccc1 (stereo not shown) [Compound 353, 4-anilino-6-[4-[4-[[2-[[2-(2,6-dioxo-3-piperidyl)-1,3-dioxo-isoindolin-4-yl]amino]acetyl]amino]butylcarbamoyl]-3-methyl-phenyl]-N-methyl-quinoline-3-carboxamide]"
4,< 100,"CNC(=O)c1cnc2ccc(-c3ccc(C(=O)NCCCCNC(=O)COc4cccc5c4C(=O)N(C4CCC(=O)NC4=O)C5=O)c(C)c3)cc2c1Nc1ccccc1 (stereo not shown) [Compound 354, 4-anilino-6-[4-[4-[[2-[2-(2,6-dioxo-3-piperidyl)-1,3-dioxo-isoindolin-4-yl]oxyacetyl]amino]butylcarbamoyl]-3-methyl-phenyl]-N-methyl-quinoline-3-carboxamide]"
5,< 100,"CNC(=O)c1cnc2ccc(-c3ccc(C(=O)NCCCCn4cc(CNc5cccc6c5C(=O)N(C5CCC(=O)NC5=O)C6=O)nn4)cc3)cc2c1Nc1ccccc1 (stereo not shown) [Compound 356, 4-anilino-6-[4-[4-[4-[[[2-(2,6-dioxo-3-piperidyl)-1,3-dioxo-isoindolin-4-yl]amino]methyl]triazol-1-yl]butylcarbamoyl]phenyl]-N-methyl-quinoline-3-carboxamide]"
6,< 100,"CNC(=O)c1cnc2ccc(-c3ccc(C(=O)NCCCCNC(=O)COc4cccc5c4C(=O)N(C4CCC(=O)NC4=O)C5=O)nc3)cc2c1Nc1ccccc1 (stereo not shown) [Compound 357, 4-anilino-6-[6-[4-[[2-[2-(2,6-dioxo-3-piperidyl)-1,3-dioxo-isoindolin-4-yl]oxyacetyl]amino]butylcarbamoyl]-3-pyridyl]-N-methyl-quinoline-3-carboxamide]"
7,< 100,"CNC(=O)c1cnc2ccc(-c3ccc(C(=O)NCCCCNC(=O)CNc4cccc5c4C(=O)N(C4CCC(=O)NC4=O)C5=O)nc3)cc2c1Nc1ccccc1 (stereo not shown) [Compound 358, 4-anilino-6-[6-[4-[[2-[[2-(2,6-dioxo-3-piperidyl)-1,3-dioxo-isoindolin-4-yl]amino]acetyl]amino]butylcarbamoyl]-3-pyridyl]-N-methyl-quinoline-3-carboxamide]"
8,< 100,"CNC(=O)c1cnc2ccc(-c3ccc(C(=O)NCCCCN4CCN(c5cccc6c5C(=O)N(C5CCC(=O)NC5=O)C6=O)CC4)cc3)cc2c1Nc1ccccc1 (stereo not shown) [Compound 359, 4-anilino-6-[4-[4-[4-[2-(2,6-dioxo-3-piperidyl)-1,3-dioxo-isoindolin-4-yl]piperazin-1-yl]butylcarbamoyl]phenyl]-N-methyl-quinoline-3-carboxamide]"
9,< 100,"CNC(=O)c1cnc2ccc(-c3cnn(CCCCCCNC(=O)COc4cccc5c4C(=O)N(C4CCC(=O)NC4=O)C5=O)c3)cc2c1Nc1ccccc1 (stereo not shown) [Compound 360, 4-anilino-6-[1-[6-[[2-[2-(2,6-dioxo-3-piperidyl)-1,3-dioxo-isoindolin-4-yl]oxyacetyl]amino]hexyl]pyrazol-4-yl]-N-methyl-quinoline-3-carboxamide]"
10,< 100,"CNC(=O)c1cnc2ccc(-c3ccc(C(=O)NCCCNC(=O)C(C)Nc4cccc5c4C(=O)N(C4CCC(=O)NC4=O)C5=O)cc3)cc2c1Nc1ccccc1 (stereo not shown) [Compound 363, 4-anilino-6-[4-[3-[2-[[2-(2,6-dioxo-3-piperidyl)-1,3-dioxo-isoindolin-4-yl]amino]propanoylamino]propylcarbamoyl]phenyl]-N-methyl-quinoline-3-carboxamide]"
11,< 100,"CNC(=O)c1cnc2ccc(-c3ccc(NCCCCNC(=O)CNc4cccc5c4C(=O)N(C4CCC(=O)NC4=O)C5=O)nc3)cc2c1Nc1ccccc1 (stereo not shown) [Compound 365, 4-anilino-6-[6-[4-[[2-[[2-(2,6-dioxo-3-piperidyl)-1,3-dioxo-isoindolin-4-yl]amino]acetyl]amino]butylamino]-3-pyridyl]-N-methyl-quinoline-3-carboxamide]"
12,< 100,"CNC(=O)c1cnc2ccc(-c3ccc(C(=O)NCCCCNC(=O)C(C)Nc4cccc5c4C(=O)N(C4CCC(=O)NC4=O)C5=O)c(F)c3)cc2c1Nc1ccccc1 (stereo not shown) [Compound 372, 4-anilino-6-[4-[4-[2-[[2-(2,6-dioxo-3-piperidyl)-1,3-dioxo-isoindolin-4-yl]amino]propanoylamino]butylcarbamoyl]-3-fluoro-phenyl]-N-methyl-quinoline-3-carboxamide]"
13,< 100,"CNC(=O)c1cnc2ccc(-c3ccc(C(=O)NCCCCNC(=O)CCc4cccc5c4CN(C4CCC(=O)NC4=O)C5=O)cc3)cc2c1Nc1ccccc1 (stereo not shown) [Compound 374, 4-anilino-6-[4-[4-[3-[2-(2,6-dioxo-3-piperidyl)-1-oxo-isoindolin-4-yl]propanoylamino]butylcarbamoyl]phenyl]-N-methyl-quinoline-3-carboxamide]"
14,< 100,"CNC(=O)c1cnc2cc(C(F)(F)F)c(-c3ccc(C(=O)NCCCCNC(=O)CNc4cccc5c4C(=O)N(C4CCC(=O)NC4=O)C5=O)c(F)c3)cc2c1Nc1ccccc1 (stereo not shown) [Compound 375, 6-(4-((4-(2-((2-(2,6-dioxopiperidin-3-yl)-1,3-dioxoisoindolin-4-yl)amino)acetamido)butyl)carbamoyl)-3-fluorophenyl)-N-methyl-4-(phenylamino)-7-(trifluoromethyl)quinoline-3-carboxamide]"
15,< 100,"CNC(=O)c1cnc2cc(OC)c(-c3ccc(C(=O)NCCCCn4cc(CNc5cccc6c5C(=O)N(C5CCC(=O)NC5=O)C6=O)nn4)cn3)cc2c1Nc1ccccc1 (stereo not shown) [Compound 376, 6-(5-((4-(4-(((2-(2,6-dioxopiperidin-3-yl)-1,3-dioxoisoindolin-4-yl)amino)methyl)-1H-1,2,3-triazol-1-yl)butyl)carbamoyl)pyridin-2-yl)-7-methoxy-N-methyl-4-(phenylamino)quinoline-3-carboxamide]"
16,< 100,"CNC(=O)c1cnc2ccc(-c3ccc(C(=O)NCCCCCCCCc4cccc5c4CN(C4CCC(=O)NC4=O)C5=O)cc3)cc2c1Nc1ccccc1 (stereo not shown) [Compound 378, 4-anilino-6-[4-[8-[2-(2,6-dioxo-3-piperidyl)-1-oxo-isoindolin-4-yl]octylcarbamoyl]phenyl]-N-methyl-quinoline-3-carboxamide]"
